Measurements reported in patent US20240299359A1, “PHARMACEUTICAL COMPOSITION FOR ANIMALS CONTAINING 5-HYDROXY-METHYLIMIDAZOLIDINE-2,4-DIONE COMPOUND AS ACTIVE INGREDIENT” (KYONGBO PHARM. CO., LTD., priority 2021, published 2024).
Several values for one entry are separate records, joined by “and”; a condition that tells them apart may be missing. Equal values may be shown once.

Test system: beagles
Experiment: 13-week repeated oral toxicity: blood coagulation test (PT, aPTT, fibrinogen)
Assay type: in vivo, beagle
Procedure: Blood Coagulation Test (PT, aPTT, Fibrinogen)
2 ml of collected blood was placed in a 3.2% sodium citrate tube, and centrifuged at 4,000 rpm for 10 minutes at 4° C., and plasma was collected for blood coagulation analysis. Prothrombin time (PT), activated partial thromboplastin time (aPTT), and fibrinogen (FIB) were analyzed using a blood coagulation measuring device (Werfen ACL ELITE Pro).

[1] = G2 200 mg/kg, repeated administration for 13 week, female, group mean
[2] = G2 200 mg/kg, repeated administration for 13 week, female, individual animals
[3] = G2 200 mg/kg, repeated administration for 13 week, male, group mean
[4] = G2 200 mg/kg, repeated administration for 13 week, male, individual animals
[5] = G3 500 mg/kg, repeated administration for 13 week, female, group mean
[6] = G3 500 mg/kg, repeated administration for 13 week, female, individual animals
[7] = G3 500 mg/kg, repeated administration for 13 week, male, group mean
[8] = G3 500 mg/kg, repeated administration for 13 week, male, individual animals
[9] = G4 1,000 mg/kg, repeated administration for 13 week, female, group mean
[10] = G4 1,000 mg/kg, repeated administration for 13 week, female, individual animals
[11] = G4 1,000 mg/kg, repeated administration for 13 week, male, group mean
[12] = G4 1,000 mg/kg, repeated administration for 13 week, male, individual animals
[13] = before administration (day 0), 200 mg/kg group (G2), female, individual animals, 200 mg/kg
[14] = before administration (day 0), 200 mg/kg group (G2), female
[15] = before administration (day 0), 200 mg/kg group (G2), male, individual animals, 200 mg/kg
[16] = before administration (day 0), 200 mg/kg group (G2), male
[17] = before administration (day 0), 500 mg/kg group (G3), female, individual animals, 500 mg/kg
[18] = before administration (day 0), 500 mg/kg group (G3), female
[19] = before administration (day 0), 500 mg/kg group (G3), male, individual animals, 500 mg/kg
[20] = before administration (day 0), 500 mg/kg group (G3), male
[21] = before administration (day 0), 1,000 mg/kg group (G4), female, individual animals
[22] = before administration (day 0), 1,000 mg/kg group (G4), female
[23] = before administration (day 0), 1,000 mg/kg group (G4), male, individual animals
[24] = before administration (day 0), 1,000 mg/kg group (G4), male

In the case of CN1C(=O)NC(=O)C1O (stereo not drawn) [KBP-001, 5-hydroxy-1-methylimidazolidine-2,4-dione], the FIB [1] is reported as 195.00 mg/dL, the PT [1] is reported as 7.67 s and the aPTT [1] is reported as 14.03 s. For the same compound, the FIB [2] was 170 mg/dL and 164 mg/dL and 251 mg/dL, the PT [2] was 7.6 sec (2×) and 7.8 sec and the aPTT [2] was 13.8 s and 13.3 s and 15.0 s. It also gave an FIB [3] of 293.00 mg/dL, a PT [3] of 7.87 s and an aPTT [3] of 13.13 s. For the same compound, the FIB [4] was 299 mg/dL and 268 mg/dL and 312 mg/dL, the PT [4] was 8.5 s and 8.2 s and 6.9 s and the aPTT [4] was 12.7 s and 13.0 s and 13.7 s. It also gave an FIB [5] of 250.00 mg/dL, a PT [5] of 7.53 s and an aPTT [5] of 14.37 s. The FIB [6] was 212 mg/dL and 230 mg/dL and 308 mg/dL, the PT [6] was 8.6 s and 6.7 s and 7.3 s and the aPTT [6] was 15.2 s and 13.7 s and 14.2 s. For the same compound, the FIB [7] was 312.67 mg/dL, the PT [7] was 7.20 s and the aPTT [7] was 15.17 s. The FIB [8] was 347 mg/dL and 302 mg/dL and 289 mg/dL, the PT [8] was 7.4 s and 7.2 s and 7.0 s and the aPTT [8] was 15.3 s and 14.8 s and 15.4 s. For the same compound, the FIB [9] was 307.00 mg/dL, the PT [9] was 7.57 s and the aPTT [9] was 14.03 s. For the same compound, the FIB [10] was 442 mg/dL and 273 mg/dL and 206 mg/dL, the PT [10] was 7.1 sec (2×) and 8.5 sec and the aPTT [10] was 12.9 s and 13.0 s and 16.2 s. It also gave an FIB [11] of 318.67 mg/dL, a PT [11] of 7.53 s and an aPTT [11] of 13.93 s. For the same compound, the FIB [12] was 292 mg/dL and 386 mg/dL and 278 mg/dL, the PT [12] was 7.6 s and 7.3 s and 7.7 s and the aPTT [12] was 15.2 s and 12.8 s and 13.8 s. For the same compound, the FIB [13] was 114 mg/dL and 184 mg/dL and 218 mg/dL, the PT [13] was 8.5 s and 7.6 s and 7.3 s and the aPTT [13] was 14.9 s and 15.3 s and 14.0 s. For the same compound, the “FIB, Mean” value [14] was 172.00 mg/dL, the “PT, Mean” value [14] was 7.80 s and the “aPTT, Mean” value [14] was 14.73 s. The FIB [15] was 270 mg/dL and 254 mg/dL and 233 mg/dL, the PT [15] was 9.2 s and 8.4 s and 7.2 s and the aPTT [15] was 15.5 s and 12.1 s and 12.4 s. The “FIB, Mean” value [16] was 252.33 mg/dL, the “PT, Mean” value [16] was 8.27 s and the “aPTT, Mean” value [16] was 13.33 s. The FIB [17] was 186 mg/dL and 199 mg/dL and 268 mg/dL, the PT [17] was 8.8 s and 7.4 s and 7.9 s and the aPTT [17] was 14.5 s and 11.9 s and 13.8 s. For the same compound, the “FIB, Mean” value [18] was 217.67 mg/dL, the “PT, Mean” value [18] was 8.03 s and the “aPTT, Mean” value [18] was 13.40 s. For the same compound, the FIB [19] was 235 mg/dL and 254 mg/dL and 239 mg/dL, the PT [19] was 7.6 s and 7.2 s and 7.3 s and the aPTT [19] was 15.2 s and 14.6 s and 12.1 s. For the same compound, the “FIB, Mean” value [20] was 242.67 mg/dL, the “PT, Mean” value [20] was 7.37 s and the “aPTT, Mean” value [20] was 13.97 s. The FIB [21] was 237 mg/dL and 230 mg/dL and 258 mg/dL, the PT [21] was 7.6 s and 7.8 s and 8.3 s and the aPTT [21] was 11.1 s and 14.2 s and 15.6 s. The “FIB, Mean” value [22] was 194.73 mg/dL, the “PT, Mean” value [22] was 6.53 s and the “aPTT, Mean” value [22] was 11.62 s. For the same compound, the FIB [23] was 305 mg/dL and 312 mg/dL and 237 mg/dL, the PT [23] was 8.3 s and 7.2 s and 8.0 s and the aPTT [23] was 14.8 s and 11.3 s and 14.7 s. For the same compound, the “FIB, Mean” value [24] was 200.81 mg/dL, the “PT, Mean” value [24] was 6.57 s and the “aPTT, Mean” value [24] was 11.52 s.
